{"source": "patent US20220118002A1", "about": "“COMPOSITIONS OF MATTER WITH ACTIVITY TO REMOVE LIPOFUSCIN FROM RETINAL CELLS” (Cornell University, priority 2019, published 2022)", "key": {"[1]": {"test_system": "Human retinal pigment epithelium (RPE) cultured cells, ARPE-19, pre-loaded with A2E", "assay": "A2E (lipofuscin bisretinoid) removal assay, fluorescence plate reader", "format": "cell-based", "conditions": "for removal of lipofuscin bisretinoids (A2E) from retinal cells: 4 mM cyclodextrin, 48 hrs, cells pre-loaded with 5 μM A2E, FIG. 2"}, "[2]": {"test_system": "lipofuscin (LB) in RPE of DKO mice (ABCA4 and RDH8 mutations)", "assay": "In vivo LB removal from eyes by intravitreal injection, RPE-eyecup autofluorescence", "set-up": "species or system mouse", "conditions": "FIG. 9; for reduction of the amount of lipofuscin vs vehicle (significance, unpaired T-test): two intravitreal injections one week apart, same doses; for total LB extracted from retinas: two intravitreal injections one week apart: 2 μl 100 mM MβCD, 1 μl 500 mM HPβCD or SBE-βCD, eyes harvested 4 days after second injection"}, "[3]": {"test_system": "Epithelial cells pre-loaded with A2E", "assay": "Stoichiometric distribution of A2E between cell lysates and supernatants", "format": "cell-based", "conditions": "12.5 mM, 4 hrs, serum free media, FIG. 7"}, "visual acuity of mice": {"test_system": "visual acuity of mice", "assay": "Visual acuity, Spatial Frequency (SF) response by OptoMotry", "conditions": "intravitreal, twice, one week apart, both eyes: 2 μl 100 mM M-βCD, 1 μl 500 mM HP-βCD or SBE-βCD, FIGS. 10A-10B"}, "[4]": {"test_system": "lipofuscin and A2E accumulation in ABCA4-/- mouse", "conditions": "cited from earlier work"}, "formation of new LB": {"test_system": "formation of new LB", "conditions": "oral, animals; cited from earlier work"}, "[5]": {"test_system": "patients diagnosed with Stargardt or AMD", "conditions": "cited from earlier work"}, "[6]": {"test_system": "lipofuscin in RPE cells of monkey retinas", "conditions": "oral, one year; cited from earlier work"}, "A2E-loaded RPE cultures": {"test_system": "A2E-loaded RPE cultures", "assay": "Fluorescence microscopy of LB removal from A2E-loaded cells", "format": "cell-based, human", "method": "[…] At the end of the incubation period, fluorescence of A2E inside the cells was monitored by fluorescence microscopy at 100× magnification. Cells were stained with Hoechst stain to visualize nuclei of cells that contained A2E.\nFIGS. 4A-4B show the removal of LB with methyl β-Cyclodextrin as determined by fluorescence microscopy. […] Cells were stained with Hoechst stain to visualize nuclei. Fluorescence of A2E inside the cells (unextracted cells) was monitored by fluorescence microscopy at 100× magnification.\nUntreated A2E-loaded RPE cultures served as negative controls. A2E-loaded RPE cultures were treated with 7.5 mM of the indicated β-Cyclodextrin compound for 48 hrs. For each cyclodextrin, three separate lots were tested. Lipofuscin (yellow) is visualized by fluorescence microscopy (488 nm/600 nm) using low magnification (10×) objective to capture a large number of cells.\nFluorescence microscopy: LBs are auto-fluorescent molecules on account of the abundant conjugated double bonds in their hydrophobic arms. When excited at 430 nm (blue light) they emit yellow-orange fluorescence peaking at 610 nm. The intensity of the fluorescence is proportional to their amounts. Hoechst blue fluorescence dye was used to stain the nucleus of cells treated with cyclodextrins. […] Each dose was assayed in triplicated and ten random fields were evaluated per well. […]"}, "[7]": {"test_system": "photoreceptor layer (ONL) / retina", "assay": "Retina morphometry and histology (ONL thickness, H&E cross sections)", "format": "in vivo, mouse", "conditions": "intravitreal treatment", "method": "Morphometric analysis comparing the thickneness of the outer nuclear layer (ONL) in control and SBE-BCD treated animals was performed. The layer of photoreceoptors was selected using Photoshop and ImageJ and thickness was measured.\nStitched images were created using ZEN Blue (Zeiss) from individual fields obtained by color microscopy of hematoxylin and eosin stained paraffin-embedded cross sections of retinas from mice treated with 1 μl vehicle or Sulfo Butyl β-Cyclodextrin.\n2 μl 100 mM M-βCD; 1 μl 500 mM HP-3CD; or 1 μl 500 mM SBE-βCD were injected twice, one-week apart, in both eyes and 2 μl H2O were injected intravitreally to age matched controls. To evaluate the visual toxicity of the treatment, the Spatial Frequency response (SF) was determined just before each injection and before sacrificing the mouse, i.e., four days after the second injection. SF is a cone-mediated visual response measured using an OptoMotry (OMT) chamber. Briefly, the mouse standing unrestrained on an elevated platform is surrounded by computer monitors that create a virtual cylinder with black bars on white background."}, "[8]": {"conditions": "long-term oral administration, ABCA4-/-"}}, "data": [{"compound": "COC[C@H]1O[C@@H]2O[C@H]3[C@H](OC)[C@@H](OC)[C@@H](O[C@H]4[C@H](OC)[C@@H](OC)[C@@H](O[C@H]5[C@H](OC)[C@@H](OC)[C@@H](O[C@H]6[C@H](OC)[C@@H](OC)[C@@H](O[C@H]7[C@H](OC)[C@@H](OC)[C@@H](O[C@H]8[C@H](OC)[C@@H](OC)[C@@H](O[C@H]1[C@H](OC)[C@H]2OC)O[C@@H]8COC)O[C@@H]7COC)O[C@@H]6COC)O[C@@H]5COC)O[C@@H]4COC)O[C@@H]3COC", "note": "[2,3,6-tri-O-methyl-β-Cyclodextrin, Heptakis (2,3,6-tri-O-Methyl) β-Cyclodextrin, reference compound]", "values": [{"measurement": "removal of lipofuscin bisretinoids (A2E) from retinal cells", "setting": "[1]", "value": "not effective in promoting LB removal"}]}, {"compound": "COC[C@H]1O[C@@H]2O[C@H]3[C@H](O)[C@@H](OC)[C@@H](O[C@H]4[C@H](O)[C@@H](OC)[C@@H](O[C@H]5[C@H](O)[C@@H](OC)[C@@H](O[C@H]6[C@H](O)[C@@H](OC)[C@@H](O[C@H]7[C@H](O)[C@@H](OC)[C@@H](O[C@H]8[C@H](O)[C@@H](OC)[C@@H](O[C@H]1[C@H](O)[C@H]2OC)O[C@@H]8COC)O[C@@H]7COC)O[C@@H]6COC)O[C@@H]5COC)O[C@@H]4COC)O[C@@H]3COC", "note": "[2,6-di-O-methyl-β-Cyclodextrin, Heptakis (2,6-di-O-Methyl) β-Cyclodextrin, reference compound]", "values": [{"measurement": "removal of lipofuscin bisretinoids (A2E) from retinal cells", "setting": "[1]", "value": "not effective in promoting LB removal"}]}, {"compound": "CC(O)COC[C@H]1O[C@@H]2O[C@H]3[C@H](O)[C@@H](O)[C@@H](O[C@H]4[C@H](O)[C@@H](O)[C@@H](O[C@H]5[C@H](O)[C@@H](O)[C@@H](O[C@H]6[C@H](O)[C@@H](O)[C@@H](O[C@H]7[C@H](O)[C@@H](O)[C@@H](O[C@H]8[C@H](O)[C@@H](O)[C@@H](O[C@H]1[C@H](O)[C@H]2O)O[C@@H]8COCC(C)O)O[C@@H]7COCC(C)O)O[C@@H]6COCC(C)O)O[C@@H]5COCC(C)O)O[C@@H]4COCC(C)O)O[C@@H]3COCC(C)O", "note": "(stereo partly drawn) [2-Hydroxy Propyl β-Cyclodextrin, 2-hydroxypropyl beta-Cyclodextrin]", "values": [{"measurement": "removal of lipofuscin bisretinoids (A2E) from retinal cells", "setting": "[1]", "value": "promoted removal of lipofuscin bisretinoids from retinal cells"}, {"measurement": "reduction of the amount of lipofuscin vs vehicle (significance, unpaired T-test)", "setting": "[2]", "value": "effective"}, {"measurement": "distribution of A2E fluorescence between cells and supernatants", "setting": "[3]", "value": "all A2E fluorescence that was absent from cells was present in supernatants"}, {"measurement": "visual acuity (Spatial Frequency response)", "setting": "visual acuity of mice", "value": "some animals showing significant impairment of visal response"}]}, {"compound": "[2H]C([2H])([2H])C(/C=C/C=C(C)/C=C/C1=C(C)CCCC1(C)C)=C\\COC(C)=O", "note": "[ALK-001, deuterated vitamin A]", "values": [{"measurement": "visual function by electroretinogram", "setting": "[4]; ABCA4-/- mouse model", "value": "prevented the gradual loss of visual function"}, {"measurement": "reduction of accumulation of A2E", "setting": "[4]; [8]", "value": 80, "unit": "%"}, {"measurement": "reduction of accumulation of lipofuscin", "setting": "[4]; [8]", "value": 70, "unit": "%"}]}, {"compound": "CC1=C(/C=C/C(C)=C/C=C/C(C)=C/C(=O)Nc2ccc(O)cc2)C(C)(C)CCC1", "note": "[fenretinide]", "values": [{"measurement": "formation of new LB", "setting": "formation of new LB", "value": "effective at slowing down the formation of new LB"}, {"measurement": "side effects", "setting": "[5]; oral", "value": "night blindness, and mild reversible skin-dryness"}, {"measurement": "therapeutic effect in patients", "setting": "[5]; patients already diagnosed with Stargardt or AMD", "value": "did not confer a significant therapeutic effect"}]}, {"compound": "OC[C@H]1O[C@@H]2O[C@H]3[C@H](O)[C@@H](O)[C@@H](O[C@H]4[C@H](O)[C@@H](O)[C@@H](O[C@H]5[C@H](O)[C@@H](O)[C@@H](O[C@H]6[C@H](O)[C@@H](O)[C@@H](O[C@H]7[C@H](O)[C@@H](O)[C@@H](O[C@H]8[C@H](O)[C@@H](O)[C@@H](O[C@H]9[C@H](O)[C@@H](O)[C@@H](O[C@H]1[C@H](O)[C@H]2O)O[C@@H]9CO)O[C@@H]8CO)O[C@@H]7CO)O[C@@H]6CO)O[C@@H]5CO)O[C@@H]4CO)O[C@@H]3CO", "note": "[gamma-cyclodextrin, Gamma-Cyclodextrin, reference compound]", "values": [{"measurement": "removal of lipofuscin bisretinoids (A2E) from retinal cells", "setting": "[1]", "value": "did not extract A2E"}]}, {"compound": "COCCO[C@@H]1c2ccn3c(C)c(C)nc3c2N[C@H](c2ccccc2)[C@H]1O", "note": "[soprazan]", "values": [{"measurement": "elimination of lipofuscin from RPE cells", "setting": "[6]", "value": "Successful elimination of lipofuscin from RPE cells"}]}, {"compound": "OC[C@H]1O[C@@H]2O[C@H]3[C@H](O)[C@@H](O)[C@@H](O[C@H]4[C@H](O)[C@@H](O)[C@@H](O[C@H]5[C@H](O)[C@@H](O)[C@@H](O[C@H]6[C@H](O)[C@@H](O)[C@@H](O[C@H]7[C@H](O)[C@@H](O)[C@@H](O[C@H]1[C@H](O)[C@H]2O)O[C@@H]7CO)O[C@@H]6CO)O[C@@H]5CO)O[C@@H]4CO)O[C@@H]3CO", "note": "[α-Cyclodextrin, reference compound]", "values": [{"measurement": "removal of lipofuscin bisretinoids (A2E) from retinal cells", "setting": "[1]", "value": "did not extract A2E"}]}, {"compound": "OC[C@H]1O[C@@H]2O[C@H]3[C@H](O)[C@@H](O)[C@@H](O[C@H]4[C@H](O)[C@@H](O)[C@@H](O[C@H]5[C@H](O)[C@@H](O)[C@@H](O[C@H]6[C@H](O)[C@@H](O)[C@@H](O[C@H]7[C@H](O)[C@@H](O)[C@@H](O[C@H]8[C@H](O)[C@@H](O)[C@@H](O[C@H]1[C@H](O)[C@H]2O)O[C@@H]8CO)O[C@@H]7CO)O[C@@H]6CO)O[C@@H]5CO)O[C@@H]4CO)O[C@@H]3CO", "note": "[β-Cyclodextrin, reference compound]", "values": [{"measurement": "removal of lipofuscin bisretinoids (A2E) from retinal cells", "setting": "[1]", "value": "did not extract A2E"}]}, {"compound": "Methyl β-Cyclodextrin", "values": [{"measurement": "localisation of LB after treatment", "setting": "A2E-loaded RPE cultures; 7.5 mM, 100× objective, FIGS. 4A-4B", "value": "LB was expelled outside the cells"}, {"measurement": "LB fluorescence in cells after treatment", "setting": "A2E-loaded RPE cultures; 24 hours, 100× magnification, FIG. 3B", "value": "completely devoid of the turquoise fluorescence"}, {"measurement": "removal of lipofuscin bisretinoids (A2E) from retinal cells", "setting": "[1]", "value": "promoted removal of lipofuscin bisretinoids from retinal cells"}, {"measurement": "dose that removed most of the detectable LB deposits", "setting": "[1]; 24 hrs, FIG. 3A", "value": "10 to 20", "unit": "µM"}, {"measurement": "dose dependence of A2E removal", "setting": "[1]; 24 hrs, increasing doses, FIG. 3A", "value": "dose-dependent"}, {"measurement": "A2E removal compared to untreated control at lowest tested dose", "setting": "[1]; 24 hrs, lowest tested dose, FIG. 3A", "value": "about 75%"}, {"measurement": "reduction of the amount of lipofuscin vs vehicle (significance, unpaired T-test)", "setting": "[2]", "value": "did not significantly reduce the amount of lipofuscin"}, {"measurement": "total LB extracted from retinas", "setting": "[2]", "value": 18.2, "unit": "%"}, {"measurement": "distribution of A2E fluorescence between cells and supernatants", "setting": "[3]", "value": "all A2E fluorescence that was absent from cells was present in supernatants"}]}, {"compound": "Sulfobutyl ether β-Cyclodextrin [Sulfo Butyl Ether β-Cyclodextrin]", "values": [{"measurement": "overall structure of the retinas", "setting": "[7]; H&E cross sections, FIG. 11B", "value": "remained intact"}, {"measurement": "integrity of the photoreceptor layer (ONL)", "setting": "[7]; ONL thickness, FIG. 11A", "value": "did not compromise the integrity of the photoreceptor layer (ONL)"}, {"measurement": "removal of lipofuscin bisretinoids (A2E) from retinal cells", "setting": "[1]", "value": "promoted removal of lipofuscin bisretinoids from retinal cells"}, {"measurement": "reduction of the amount of lipofuscin vs vehicle (significance, unpaired T-test)", "setting": "[2]", "value": "effective"}, {"measurement": "total LB extracted from retinas", "setting": "[2]", "value": 42.6, "unit": "%"}, {"measurement": "distribution of A2E fluorescence between cells and supernatants", "setting": "[3]", "value": "all A2E fluorescence that was absent from cells was present in supernatants"}, {"measurement": "visual acuity (Spatial Frequency response)", "setting": "visual acuity of mice", "value": "well tolerated showing indistinguishable SF from water treated and non-injected negative controls"}]}]}
